Results: ChEMBL document CHEMBL1201862, “PubChem BioAssay data set” (2004)
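How tested: cells in 96-well plates exposed to compound for 48 hours at five concentrations. At the GI50, growth is halved.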 The source made the active and inactive calls. Rule as the data show it: active = GI50 up to about 1.1 µM and inactive = higher.

Tests used:
Experiment in all cases: NCI tumour cell line growth inhibition, 48 h
NCI-H226 = test system: NCI-H226
MOLT-4 = test system: MOLT-4
SNB-19 = test system: SNB-19
CAKI-1 = test system: CAKI-1
EKVX = test system: EKVX
HCT-116 = test system: HCT-116
KM12 = test system: KM12
SK-MEL-5 = test system: SK-MEL-5
786-0 = test system: 786-0
SK-MEL-2 = test system: SK-MEL-2
OVCAR-4 = test system: OVCAR-4
UACC-62 = test system: UACC-62
SF-268 = test system: SF-268
DU-145 = test system: DU-145
NCI/ADR-RES = test system: NCI/ADR-RES
SNB-75 = test system: SNB-75
HOP-92 = test system: HOP-92
SK-MEL-28 = test system: SK-MEL-28
T47D = test system: T47D

Measured: GI50

CC#COP(=O)(OCC)OCC
inactive: NCI-H226 23.9 µM | MOLT-4 > 100 µM | SNB-19 > 100 µM | CAKI-1 > 100 µM | EKVX > 100 µM | HCT-116 > 100 µM | KM12 > 100 µM | SK-MEL-5 > 100 µM | 786-0 > 100 µM | SK-MEL-2 > 100 µM | OVCAR-4 > 100 µM | UACC-62 > 100 µM | SF-268 > 100 µM

COc1cc(NC(C)CCCN)c2nccc(C)c2c1 (stereo not drawn)
inactive: SNB-19 27 µM | CAKI-1 21.2 µM | DU-145 48.3 µM | NCI/ADR-RES 11.6 µM | EKVX 55.3 µM | HCT-116 15.8 µM | KM12 17.5 µM | SNB-75 14.2 µM | HOP-92 24.9 µM | SK-MEL-5 25.7 µM | 786-0 19 µM | SK-MEL-2 19.2 µM | SK-MEL-28 19.5 µM | OVCAR-4 21.8 µM | UACC-62 19.9 µM | SF-268 24.3 µM

COc1ccc(SC(C)(SC)c2ccccn2)c(OC)n1 (stereo not drawn)
inactive: NCI-H226 42.5 µM | MOLT-4 3.22 µM | SNB-19 > 100 µM | CAKI-1 > 100 µM | DU-145 > 100 µM | NCI/ADR-RES 53.6 µM | EKVX > 100 µM | HCT-116 48.3 µM | KM12 79.1 µM | HOP-92 70 µM | SK-MEL-5 37.4 µM | 786-0 66.7 µM | SK-MEL-2 30.8 µM | SK-MEL-28 > 100 µM | OVCAR-4 83.4 µM | UACC-62 87.3 µM | SF-268 > 100 µM

O=C(NCP(=O)(Oc1ccccc1)Oc1ccccc1)OCc1ccccc1
inactive: T47D > 100 µM | NCI-H226 > 100 µM | MOLT-4 > 100 µM | SNB-19 > 100 µM | CAKI-1 > 100 µM | NCI/ADR-RES > 100 µM | EKVX > 100 µM | KM12 > 100 µM | SNB-75 32 µM | HOP-92 38.7 µM | SK-MEL-5 > 100 µM | 786-0 53.2 µM | SK-MEL-2 > 100 µM | SK-MEL-28 > 100 µM | OVCAR-4 45.3 µM | UACC-62 62.8 µM | SF-268 > 100 µM

COC(=O)C(Cc1nc2ccc(Cl)cc2nc1O)/C(=N\N)C(=O)Nc1cc(C)c(Cl)cc1S(=O)(=O)O (stereo not drawn)
inactive: NCI-H226 47.1 µM | MOLT-4 > 100 µM | SNB-19 > 100 µM | CAKI-1 > 100 µM | EKVX > 100 µM | HCT-116 > 100 µM | KM12 > 100 µM | HOP-92 24.3 µM | SK-MEL-5 > 100 µM | 786-0 > 100 µM | SK-MEL-2 > 100 µM | SK-MEL-28 > 100 µM | OVCAR-4 > 100 µM | UACC-62 > 100 µM | SF-268 > 100 µM

Oc1ccc(Oc2cc3c(cc2Oc2ccc(O)cc2)-c2nc-3nc3[nH]c(nc4nc(nc5[nH]c(n2)c2cc(Oc6ccc(O)cc6)c(Oc6ccc(O)cc6)cc52)-c2cc(Oc5ccc(O)cc5)c(Oc5ccc(O)cc5)cc2-4)c2cc(Oc4ccc(O)cc4)c(Oc4ccc(O)cc4)cc32)cc1
inactive: T47D > 100 µM | NCI-H226 > 100 µM | MOLT-4 > 100 µM | SNB-19 > 100 µM | CAKI-1 > 100 µM | NCI/ADR-RES > 100 µM | EKVX > 100 µM | HCT-116 > 100 µM | KM12 > 100 µM | SNB-75 > 100 µM | HOP-92 > 100 µM | SK-MEL-5 60.1 µM | 786-0 > 100 µM | SK-MEL-28 > 100 µM | OVCAR-4 35.7 µM | UACC-62 76 µM | SF-268 > 100 µM

CC(=O)C1=C(N=[N+]=[N-])c2cccc3cccc(c23)C1=O
inactive: T47D 15.8 µM | NCI-H226 24.7 µM | MOLT-4 7.19 µM | SNB-19 30.1 µM | CAKI-1 15.3 µM | NCI/ADR-RES 25.1 µM | EKVX 18.2 µM | HCT-116 16 µM | KM12 21.1 µM | SNB-75 21.8 µM | HOP-92 21.7 µM | SK-MEL-5 18.7 µM | 786-0 17.1 µM | SK-MEL-2 12.4 µM | OVCAR-4 23.6 µM | UACC-62 15.2 µM | SF-268 25.2 µM

COC(=O)c1nn(-c2ccccc2)c(=O)cc1N=[N+]=[N-]
inactive: NCI-H226 > 100 µM | MOLT-4 > 100 µM | SNB-19 > 100 µM | CAKI-1 > 100 µM | EKVX > 100 µM | HCT-116 > 100 µM | KM12 > 100 µM | SK-MEL-5 > 100 µM | 786-0 > 100 µM | SK-MEL-28 > 100 µM | OVCAR-4 > 100 µM | UACC-62 > 100 µM | SF-268 > 100 µM

COc1cc(C(=O)O[C@H]2CCC3CCC2N3C)cc(OC)c1OC (stereo partly drawn)
inactive: NCI-H226 > 100 µM | MOLT-4 > 100 µM | SNB-19 > 100 µM | DU-145 > 100 µM | NCI/ADR-RES > 100 µM | EKVX > 100 µM | HCT-116 > 100 µM | KM12 > 100 µM | SNB-75 58.9 µM | HOP-92 34.4 µM | SK-MEL-5 > 100 µM | 786-0 > 100 µM | SK-MEL-28 > 100 µM | OVCAR-4 > 100 µM | SF-268 > 100 µM

O=C(NCCC1CNc2ccccc21)OCc1ccccc1 (stereo not drawn)
inactive: MOLT-4 71.4 µM | SNB-19 > 100 µM | CAKI-1 > 100 µM | DU-145 > 100 µM | NCI/ADR-RES > 100 µM | EKVX > 100 µM | HCT-116 > 100 µM | KM12 > 100 µM | HOP-92 > 100 µM | SK-MEL-5 > 100 µM | 786-0 > 100 µM | SK-MEL-2 > 100 µM | SK-MEL-28 > 100 µM | OVCAR-4 > 100 µM | UACC-62 > 100 µM | SF-268 > 100 µM

CC(C)(C)c1ccccc1N1C(=O)c2ccc3c4c(ccc(c24)C1=O)N(c1ccccc1C(C)(C)C)C3=O
inactive: MOLT-4 5.46 µM | SNB-19 > 100 µM | CAKI-1 > 100 µM | DU-145 > 100 µM | NCI/ADR-RES > 100 µM | EKVX 14.8 µM | HCT-116 > 100 µM | KM12 > 100 µM | HOP-92 6.43 µM | SK-MEL-5 > 100 µM | 786-0 > 100 µM | SK-MEL-2 > 100 µM | SK-MEL-28 > 100 µM | OVCAR-4 > 100 µM | UACC-62 > 100 µM | SF-268 > 100 µM

COc1cc2[nH]c(=O)c3cc(C)cc4c(Cl)nc(c1OC)c2c43
inactive: NCI-H226 45.7 µM | MOLT-4 42.8 µM | SNB-19 42 µM | CAKI-1 56.2 µM | DU-145 61.8 µM | NCI/ADR-RES > 100 µM | EKVX 18.1 µM | HCT-116 40.1 µM | KM12 96.6 µM | SNB-75 22.9 µM | HOP-92 35.9 µM | SK-MEL-5 55.6 µM | 786-0 20 µM | SK-MEL-2 32.9 µM | SK-MEL-28 > 100 µM | OVCAR-4 > 100 µM | UACC-62 28.3 µM | SF-268 20.4 µM

COC1[C@H](NC(=O)OC(C)(C)C)C(=O)N1Cc1ccccc1 (stereo partly drawn)
inactive: NCI-H226 > 100 µM | MOLT-4 > 100 µM | SNB-19 > 100 µM | EKVX > 100 µM | HCT-116 > 100 µM | KM12 > 100 µM | SNB-75 > 100 µM | HOP-92 74.6 µM | SK-MEL-5 > 100 µM | 786-0 > 100 µM | SK-MEL-2 > 100 µM | SK-MEL-28 > 100 µM | OVCAR-4 > 100 µM | UACC-62 > 100 µM | SF-268 > 100 µM

COc1ccc(N(C(=O)Nc2ccc(Cl)c(Cl)c2)C2c3cccn3C(=O)N2c2ccc(Cl)c(Cl)c2)cc1 (stereo not drawn)
inactive: NCI-H226 > 100 µM | MOLT-4 1.54 µM | SNB-19 > 100 µM | CAKI-1 26.9 µM | DU-145 > 100 µM | NCI/ADR-RES > 100 µM | EKVX 42.3 µM | HCT-116 17.3 µM | KM12 30.5 µM | HOP-92 51.3 µM | SK-MEL-5 70.5 µM | 786-0 > 100 µM | SK-MEL-2 > 100 µM | SK-MEL-28 > 100 µM | OVCAR-4 30.1 µM | UACC-62 41.9 µM | SF-268 8.43 µM

CC(C)NC(C)C(C)c1ccccc1 (stereo not drawn)
inactive: NCI-H226 > 100 µM | MOLT-4 > 100 µM | SNB-19 > 100 µM | CAKI-1 > 100 µM | EKVX > 100 µM | HCT-116 > 100 µM | KM12 > 100 µM | SNB-75 > 100 µM | SK-MEL-5 > 100 µM | 786-0 > 100 µM | SK-MEL-2 > 100 µM | SK-MEL-28 > 100 µM | OVCAR-4 > 100 µM | UACC-62 > 100 µM | SF-268 > 100 µM

C#Cc1ccccc1N1C(=O)C=CC1=O
inactive: NCI-H226 > 100 µM | MOLT-4 > 100 µM | SNB-19 > 100 µM | CAKI-1 > 100 µM | EKVX > 100 µM | HCT-116 > 100 µM | SNB-75 > 100 µM | SK-MEL-5 > 100 µM | 786-0 > 100 µM | SK-MEL-2 > 100 µM | SK-MEL-28 > 100 µM | OVCAR-4 > 100 µM | UACC-62 > 100 µM | SF-268 > 100 µM

COc1cccc(-c2cc(O)c3cc(NC(C)=O)ccc3n2)c1
inactive: MOLT-4 5.27 µM | SNB-19 8.41 µM | CAKI-1 62.1 µM | NCI/ADR-RES 62.8 µM | EKVX 53 µM | KM12 23.5 µM | HOP-92 8.17 µM | SK-MEL-5 14.6 µM | 786-0 28.9 µM | SK-MEL-28 33.2 µM | UACC-62 17.4 µM | SF-268 6.3 µM
